PubChem BioAssay AID1259407 (Chemical Carcinogenesis Research Information System (CCRIS), 2018)
Active and inactive are the calls of the source. The rule behind the calls is not given here.

System: CCRIS mutagenicity, Ames/micronucleus/aberration tests
Experiment: CCRIS mutagenicity studies
[1] = Test System: AMES SALMONELLA TYPHIMURIUM, Strain/Indicator: TA98, Metabolic Activation: NONE, Method: STANDARD PLATE
[2] = Test System: AMES SALMONELLA TYPHIMURIUM, Strain/Indicator: TA98, Metabolic Activation: RAT, LIVER, S-9, AROCLOR 1254, Method: STANDARD PLATE
[3] = Test System: AMES SALMONELLA TYPHIMURIUM, Strain/Indicator: TA100, Metabolic Activation: NONE, Method: STANDARD PLATE
[4] = Test System: AMES SALMONELLA TYPHIMURIUM, Strain/Indicator: TA100, Metabolic Activation: RAT, LIVER, S-9, AROCLOR 1254, Method: STANDARD PLATE
[5] = Test System: AMES SALMONELLA TYPHIMURIUM, Strain/Indicator: TA1535, Metabolic Activation: NONE, Method: STANDARD PLATE
[6] = Test System: AMES SALMONELLA TYPHIMURIUM, Strain/Indicator: TA1535, Metabolic Activation: RAT, LIVER, S-9, AROCLOR 1254, Method: STANDARD PLATE
[7] = Test System: AMES SALMONELLA TYPHIMURIUM, Strain/Indicator: TA1537, Metabolic Activation: NONE, Method: STANDARD PLATE
[8] = Test System: AMES SALMONELLA TYPHIMURIUM, Strain/Indicator: TA1537, Metabolic Activation: RAT, LIVER, S-9, AROCLOR 1254, Method: STANDARD PLATE
[9] = Test System: AMES SALMONELLA TYPHIMURIUM, Strain/Indicator: TA1538, Metabolic Activation: NONE, Method: STANDARD PLATE
[10] = Test System: AMES SALMONELLA TYPHIMURIUM, Strain/Indicator: TA1538, Metabolic Activation: RAT, LIVER, S-9, AROCLOR 1254, Method: STANDARD PLATE

Measured: mutagenic call

O=[N+]([O-])O
inactive: Test System: AMES SALMONELLA TYPHIMURIUM, Strain/Indicator: TA97, Metabolic Activation: NONE, Method: PREINCUBATION inactive; negative | Test System: AMES SALMONELLA TYPHIMURIUM, Strain/Indicator: TA97, Metabolic Activation: S-9, Method: PREINCUBATION inactive; negative | Test System: AMES SALMONELLA TYPHIMURIUM, Strain/Indicator: TA97A, Metabolic Activation: NONE, Method: PREINCUBATION inactive; negative | Test System: AMES SALMONELLA TYPHIMURIUM, Strain/Indicator: TA97A, Metabolic Activation: NONE, Method: STANDARD PLATE inactive; negative | Test System: AMES SALMONELLA TYPHIMURIUM, Strain/Indicator: TA97A, Metabolic Activation: RAT, LIVER, S-9, PHENOBARBITAL AND BETA-NAPHTHOFLAVONE, Method: PREINCUBATION inactive; negative | Test System: AMES SALMONELLA TYPHIMURIUM, Strain/Indicator: TA97A, Metabolic Activation: RAT, LIVER, S-9, PHENOBARBITAL AND BETA-NAPHTHOFLAVONE, Method: STANDARD PLATE inactive; negative | [1] inactive; negative | [2] inactive; negative | Test System: AMES SALMONELLA TYPHIMURIUM, Strain/Indicator: TA98, Metabolic Activation: RAT, LIVER, S-9, PHENOBARBITAL AND BETA-NAPHTHOFLAVONE, Method: PREINCUBATION inactive; negative | Test System: AMES SALMONELLA TYPHIMURIUM, Strain/Indicator: TA98, Metabolic Activation: RAT, LIVER, S-9, PHENOBARBITAL AND BETA-NAPHTHOFLAVONE, Method: STANDARD PLATE inactive; negative | [3] inactive; negative | [4] inactive; negative | Test System: AMES SALMONELLA TYPHIMURIUM, Strain/Indicator: TA100, Metabolic Activation: RAT, LIVER, S-9, PHENOBARBITAL AND BETA-NAPHTHOFLAVONE, Method: PREINCUBATION inactive; negative | Test System: AMES SALMONELLA TYPHIMURIUM, Strain/Indicator: TA100, Metabolic Activation: RAT, LIVER, S-9, PHENOBARBITAL AND BETA-NAPHTHOFLAVONE, Method: STANDARD PLATE inactive; negative | Test System: AMES SALMONELLA TYPHIMURIUM, Strain/Indicator: TA102, Metabolic Activation: NONE, Method: PREINCUBATION inactive; negative | Test System: AMES SALMONELLA TYPHIMURIUM, Strain/Indicator: TA102, Metabolic Activation: S-9, Method: PREINCUBATION inactive; negative | Test System: AMES SALMONELLA TYPHIMURIUM, Strain/Indicator: TA102C, Metabolic Activation: NONE, Method: PREINCUBATION inactive; negative | Test System: AMES SALMONELLA TYPHIMURIUM, Strain/Indicator: TA102C, Metabolic Activation: NONE, Method: STANDARD PLATE inactive; negative | Test System: AMES SALMONELLA TYPHIMURIUM, Strain/Indicator: TA102C, Metabolic Activation: RAT, LIVER, S-9, PHENOBARBITAL AND BETA-NAPHTHOFLAVONE, Method: PREINCUBATION inactive; negative | Test System: AMES SALMONELLA TYPHIMURIUM, Strain/Indicator: TA102C, Metabolic Activation: RAT, LIVER, S-9, PHENOBARBITAL AND BETA-NAPHTHOFLAVONE, Method: STANDARD PLATE inactive; negative | Test System: AMES SALMONELLA TYPHIMURIUM, Strain/Indicator: TA1535, Metabolic Activation: NONE, Method: PREINCUBATION inactive; negative | [5] inactive; negative | [6] inactive; negative | Test System: AMES SALMONELLA TYPHIMURIUM, Strain/Indicator: TA1535, Metabolic Activation: RAT, LIVER, S-9, PHENOBARBITAL AND BETA-NAPHTHOFLAVONE, Method: PREINCUBATION inactive; negative | Test System: AMES SALMONELLA TYPHIMURIUM, Strain/Indicator: TA1535, Metabolic Activation: RAT, LIVER, S-9, PHENOBARBITAL AND BETA-NAPHTHOFLAVONE, Method: STANDARD PLATE inactive; negative | Test System: AMES SALMONELLA TYPHIMURIUM, Strain/Indicator: TA1537, Metabolic Activation: NONE, Method: PREINCUBATION inactive; negative | [7] inactive; negative | [8] inactive; negative | Test System: AMES SALMONELLA TYPHIMURIUM, Strain/Indicator: TA1537, Metabolic Activation: RAT, LIVER, S-9, PHENOBARBITAL AND BETA-NAPHTHOFLAVONE, Method: PREINCUBATION inactive; negative | Test System: AMES SALMONELLA TYPHIMURIUM, Strain/Indicator: TA1537, Metabolic Activation: RAT, LIVER, S-9, PHENOBARBITAL AND BETA-NAPHTHOFLAVONE, Method: STANDARD PLATE inactive; negative | Test System: AMES SALMONELLA TYPHIMURIUM, Strain/Indicator: TA1538, Metabolic Activation: NONE, Method: PREINCUBATION inactive; negative | [9] inactive; negative | [10] inactive; negative | Test System: AMES SALMONELLA TYPHIMURIUM, Strain/Indicator: TA1538, Metabolic Activation: RAT, LIVER, S-9, PHENOBARBITAL AND BETA-NAPHTHOFLAVONE, Method: PREINCUBATION inactive; negative | Test System: AMES SALMONELLA TYPHIMURIUM, Strain/Indicator: TA1538, Metabolic Activation: RAT, LIVER, S-9, PHENOBARBITAL AND BETA-NAPHTHOFLAVONE, Method: STANDARD PLATE inactive; negative | Test System: E. COLI, Strain/Indicator: WP2, Metabolic Activation: NONE, Method: STANDARD PLATE inactive; negative | Test System: E. COLI, Strain/Indicator: WP2, Metabolic Activation: RAT, LIVER, S-9, AROCLOR 1254, Method: STANDARD PLATE inactive; negative

O=c1c(O)c(C2=CC(O)(CCO)C(O)(CCO)C=C2)oc2c1C(O)=CC(O)(CCO)C2 (configuration not stated)
inactive: [1] inactive; negative | [2] inactive; negative | [3] inactive; negative | [4] inactive; negative | [5] inactive; negative | [6] inactive; negative | [7] inactive; negative | [8] inactive; negative | [9] inactive; negative | [10] inactive; negative

O=c1c2ccccc2[se]n1-c1ccccc1
inactive: [1] inactive; negative | Test System: AMES SALMONELLA TYPHIMURIUM, Strain/Indicator: TA98, Metabolic Activation: RAT LIVER S-9, PHENOBARBITAL AND 5,6-BENZOFLAVONE, Method: STANDARD PLATE inactive; negative | [3] inactive; negative | Test System: AMES SALMONELLA TYPHIMURIUM, Strain/Indicator: TA100, Metabolic Activation: RAT LIVER S-9, PHENOBARBITAL AND 5,6-BENZOFLAVONE, Method: STANDARD PLATE inactive; negative | [5] inactive; negative | Test System: AMES SALMONELLA TYPHIMURIUM, Strain/Indicator: TA1535, Metabolic Activation: RAT LIVER S-9, PHENOBARBITAL AND 5,6-BENZOFLAVONE, Method: STANDARD PLATE inactive; negative | [7] inactive; negative | Test System: AMES SALMONELLA TYPHIMURIUM, Strain/Indicator: TA1537, Metabolic Activation: RAT LIVER S-9, PHENOBARBITAL AND 5,6-BENZOFLAVONE, Method: STANDARD PLATE inactive; negative | Test System: E.COLI, Strain/Indicator: WP2 UVRA, Metabolic Activation: NONE, Method: STANDARD PLATE inactive; negative | Test System: E.COLI, Strain/Indicator: WP2 UVRA, Metabolic Activation: RAT LIVER S-9, PHENOBARBITAL AND 5,6-BENZOFLAVONE, Method: STANDARD PLATE inactive; negative
